Laboratory results reported in publication PMC7037321, “Development and Validation of Analytical Method for SH-1242 in the Rat and Mouse Plasma by Liquid Chromatography/Tandem Mass Spectrometry” (Molecules, 2020).

Tests used:
[1] = Pharmacokinetic study after single intravenous administration to rats; format: in vivo; conditions: male, Sprague-Dawley, rat, plasma, single intravenous 0.1 mg/kg, n = 4, mean ± S.D.
Method: (§1) To test the applicability of the current assay to pharmacokinetic studies, in preclinical animal species, male Sprague-Dawley rats (weighing 250–270 g) or ICR mice (weighing 18–20 g) were used. Prior to the experiment, animals fasted for 12 h with free access to water. SH-1242 was dissolved in a dosing vehicle consisting of dimethyl sulfoxide, PEG400 (Sigma-Aldrich, St. Louis, MO, USA), and normal saline in a ratio of 1:6:3 (v/v/v%), and intravenously bolus-injected to the right femoral vein at 2 mL/kg for rats or to the tail vein at 5 mL/kg for mice. In this study, the intravenous dose of SH-1242 was set at 0.1 mg/kg for both species. Blood samples (approximately 150 µL each) were collected in heparinized tubes via the right femoral artery at 2, 5, 15, 30, 60, 90, 120, 180, 240, 360, and 480 min after the administration to rats (n = 4) and via the retro-orbital plexus at 2, 5, 15, 30, 60, or 120 min after the administration to mice (n = 3 for each time point). For the mouse study, a blood sample was obtained once from each animal, and the animal was sacrificed after collection. Plasma was obtained by centrifuging blood samples at 16,100 g for 5 min at 4 °C and then processed, as described in Section 3.5. The plasma concentration versus time data was analyzed using the non-compartmental method in the WinNonlin software (WinNonlin Professional 5.0.1.; Pharsight, Mountain View, CA, USA) to calculate essential kinetic parameters, such as terminal phase half-life (T1/2), systemic clearance (CL), and steady-state volume of distribution (Vss).

[2] = Pharmacokinetic study after single intravenous administration to mice; format: in vivo; conditions: male, ICR, plasma, single intravenous 0.1 mg/kg, representative (one time point per mouse)
Method: as §1

[3] = Stability in stock solutions under typical storage conditions; format: physicochemical; conditions: stock solution in methanol (SH-1242 1 mg/mL, IS 500 ng/mL), n = 3
Method: (§2) Stock solutions of SH-1242 and IS were prepared at the concentrations of 1 mg/mL and 500 ng/mL in methanol, respectively. A serial dilution of the SH-1242 stock solution with methanol was carried out to obtain a set of SH-1242 standard solutions, and 5 µL aliquots of these standard solutions were added to 45 µL of blank plasma to prepare SH-1242 calibration standards at concentrations of 1, 2, 5, 10, 20, 50, 100, 200, 500, and 1000 ng/mL for rat plasma and 2, 5, 10, 20, 50, 100, 200, 500, and 1000 ng/mL for mouse plasma. Using similar dilution protocol, a batch of QC samples for SH-1242 was prepared at concentrations of 1 (LLOQ), 2 (low QC), 40 (mid QC), and 800 ng/mL (high QC) for rat plasma and 2 (LLOQ), 4 (low QC), 40 (mid QC), and 800 ng/mL (high QC) for mouse plasma. Samples were then processed according to the procedure described in Section 3.5.
(§3) The stability of SH-1242 and IS was evaluated under various storage and handling conditions. Stock solutions of SH-1242 and IS at concentrations of 1 mg/mL and 500 ng/mL, respectively, were stored at room temperature (25 °C) for 6 h, under refrigerated conditions (4 °C) for 24 h or 2 weeks, or under two different frozen conditions (−20 °C and −80 °C) for 2 weeks. Solutions of SH-1242 were diluted to 50 ng/mL prior to analysis. In addition, QC samples at three different concentrations (2 or 4 ng/mL, 40 ng/mL, and 800 ng/mL) were prepared and processed. The samples were then placed in various handling conditions (i.e., standing in an autosampler (4 °C for 3 days) or under bench-top condition (25 °C for 24 h), or subjected to three freeze-thaw cycles, or long-term refrigeration (4 °C for 2 weeks)). Mean peak areas of stock solutions were compared with those of fresh stock solutions. For QC samples, the results were compared with nominal concentrations. In this study, analytes were considered stable under test conditions when accuracies at each concentration were within 15% of nominal concentration.

[4] = Stability of QC samples in rat plasma under handling and storage conditions; format: in vitro ADME; conditions: n = 3; for Accuracy (RE%), freeze-thaw stability / Mean concentration, freeze-thaw stability: 3 freeze-thaw cycles; for Accuracy (RE%), long term stability / Mean concentration, long term stability: 4 °C for 2 weeks; for Accuracy (RE%), autosampler stability / Mean concentration, autosampler stability: processed sample, 4 °C for 3 days; for Accuracy (RE%), benchtop stability / Mean concentration, benchtop stability: room temperature (25 °C) for 24 h
Method: as §2, §3

[5] = Stability of QC samples in mouse plasma under handling and storage conditions; format: in vitro ADME; conditions: n = 3; for Accuracy (RE%), freeze-thaw stability / Mean concentration, freeze-thaw stability: 3 freeze-thaw cycles; for Accuracy (RE%), long term stability / Mean concentration, long term stability: 4 °C for 2 weeks; for Accuracy (RE%), autosampler stability / Mean concentration, autosampler stability: processed sample, 4 °C for 3 days; for Accuracy (RE%), benchtop stability / Mean concentration, benchtop stability: room temperature (25 °C) for 24 h
Method: as §2, §3

[6] = tested on: hypoxia-mediated angiogenesis; set-up: method as in PMID 24875598; conditions: in vitro model of hypoxia-mediated angiogenesis; cited from earlier work
[7] = set-up: method as in PMID 11320671; conditions: rats; cited from earlier work

SMILES: COc1ccc(CC(=O)c2ccc3c(c2OC)C=CC(C)(C)O3)cc1OC [SH-1242, 2-(3,4-dimethoxyphenyl)-1-(5-methoxy-2,2-dimethyl-2H-chromen-6-yl)ethanone]
- AUC(0-inf) [1]: 55.8 ng·h/mL
- MRT [1]: 2.48 h
- clearance [1]: 30.5 ± 4.49 mL/min/kg
- half-life [1]: 2.43 ± 0.983 h
- Vd ([1]; read-out: Vss): 4.38 ± 0.716 L/kg
- AUC(0-inf) [2]: 24 ng·h/mL
- MRT [2]: 0.493 h
- clearance [2]: 69.4 mL/min/kg
- half-life [2]: 0.438 h
- Vd ([2]; read-out: Vss): 2.06 L/kg
- Relative conc. (%) vs initial ([3]; Refrigerated (4 °C, 2 Weeks)): 85.2%
- Relative conc. (%) vs initial ([3]; Refrigerated (4 °C, 24 h)): 105%
- Relative conc. (%) vs initial ([3]; Refrigerated (−20 °C, 2 Weeks)): 89.1%
- Relative conc. (%) vs initial ([3]; Refrigerated (−80 °C, 2 Weeks)): 90.8%
- Relative conc. (%) vs initial ([3]; Room Temp. (6 h)): 109%
- Accuracy (RE%), freeze-thaw stability ([4]; HQC theoretical 800 ng/mL): –2.50%
- Mean concentration, freeze-thaw stability ([4]; HQC theoretical 800 ng/mL): 780 ng/mL
- Accuracy (RE%), freeze-thaw stability ([4]; LQC theoretical 2 ng/mL): –7.83%
- Mean concentration, freeze-thaw stability ([4]; LQC theoretical 2 ng/mL): 1.84 ng/mL
- Accuracy (RE%), freeze-thaw stability ([4]; MQC theoretical 40 ng/mL): 4.92%
- Mean concentration, freeze-thaw stability ([4]; MQC theoretical 40 ng/mL): 41.97 ng/mL
- Accuracy (RE%), long term stability ([4]; HQC theoretical 800 ng/mL): –8.71%
- Mean concentration, long term stability ([4]; HQC theoretical 800 ng/mL): 730 ng/mL
- Accuracy (RE%), long term stability ([4]; LQC theoretical 2 ng/mL): 0.833%
- Mean concentration, long term stability ([4]; LQC theoretical 2 ng/mL): 2.02 ng/mL
- Accuracy (RE%), long term stability ([4]; MQC theoretical 40 ng/mL): –6.75%
- Mean concentration, long term stability ([4]; MQC theoretical 40 ng/mL): 37.3 ng/mL
- Accuracy (RE%), autosampler stability ([4]; HQC theoretical 800 ng/mL): –3.33%
- Mean concentration, autosampler stability ([4]; HQC theoretical 800 ng/mL): 773 ng/mL
- Accuracy (RE%), autosampler stability ([4]; LQC theoretical 2 ng/mL): –0.167%
- Mean concentration, autosampler stability ([4]; LQC theoretical 2 ng/mL): 2.00 ng/mL
- Accuracy (RE%), autosampler stability ([4]; MQC theoretical 40 ng/mL): –2.75%
- Mean concentration, autosampler stability ([4]; MQC theoretical 40 ng/mL): 38.9 ng/mL
- Accuracy (RE%), benchtop stability ([4]; HQC theoretical 800 ng/mL): –7.88%
- Mean concentration, benchtop stability ([4]; HQC theoretical 800 ng/mL): 737 ng/mL
- Accuracy (RE%), benchtop stability ([4]; LQC theoretical 2 ng/mL): –6.33%
- Mean concentration, benchtop stability ([4]; LQC theoretical 2 ng/mL): 1.87 ng/mL
- Accuracy (RE%), benchtop stability ([4]; MQC theoretical 40 ng/mL): –6.83%
- Mean concentration, benchtop stability ([4]; MQC theoretical 40 ng/mL): 37.3 ng/mL
- Accuracy (RE%), freeze-thaw stability ([5]; HQC theoretical 800 ng/mL): 5.00%
- Mean concentration, freeze-thaw stability ([5]; HQC theoretical 800 ng/mL): 840 ng/mL
- Accuracy (RE%), freeze-thaw stability ([5]; LQC theoretical 4 ng/mL): 11.3%
- Mean concentration, freeze-thaw stability ([5]; LQC theoretical 4 ng/mL): 4.45 ng/mL
- Accuracy (RE%), freeze-thaw stability ([5]; MQC theoretical 40 ng/mL): 6.00%
- Mean concentration, freeze-thaw stability ([5]; MQC theoretical 40 ng/mL): 42.4 ng/mL
- Accuracy (RE%), long term stability ([5]; HQC theoretical 800 ng/mL): 8.08%
- Mean concentration, long term stability ([5]; HQC theoretical 800 ng/mL): 865 ng/mL
- Accuracy (RE%), long term stability ([5]; LQC theoretical 4 ng/mL): –4.08%
- Mean concentration, long term stability ([5]; LQC theoretical 4 ng/mL): 3.84 ng/mL
- Accuracy (RE%), long term stability ([5]; MQC theoretical 40 ng/mL): 12.0%
- Mean concentration, long term stability ([5]; MQC theoretical 40 ng/mL): 44.8 ng/mL
- Accuracy (RE%), autosampler stability ([5]; HQC theoretical 800 ng/mL): 7.83%
- Mean concentration, autosampler stability ([5]; HQC theoretical 800 ng/mL): 863 ng/mL
- Accuracy (RE%), autosampler stability ([5]; LQC theoretical 4 ng/mL): 4.67%
- Mean concentration, autosampler stability ([5]; LQC theoretical 4 ng/mL): 4.19 ng/mL
- Accuracy (RE%), autosampler stability ([5]; MQC theoretical 40 ng/mL): 6.50%
- Mean concentration, autosampler stability ([5]; MQC theoretical 40 ng/mL): 42.6 ng/mL
- Accuracy (RE%), benchtop stability ([5]; HQC theoretical 800 ng/mL): 1.25%
- Mean concentration, benchtop stability ([5]; HQC theoretical 800 ng/mL): 810 ng/mL
- Accuracy (RE%), benchtop stability ([5]; LQC theoretical 4 ng/mL): 5.25%
- Mean concentration, benchtop stability ([5]; LQC theoretical 4 ng/mL): 4.21 ng/mL
- Accuracy (RE%), benchtop stability ([5]; MQC theoretical 40 ng/mL): 4.25%
- Mean concentration, benchtop stability ([5]; MQC theoretical 40 ng/mL): 41.7 ng/mL
- effective concentration (antiangiogenic activity) [6]: ~10 nM

SMILES: COc1cc2c(cc1OC)[C@@H]1C(=O)c3ccc4c(c3O[C@@H]1CO2)C=CC(C)(C)O4 [deguelin, reference compound]
- Relative conc. (%) vs initial ([3]; Refrigerated (4 °C, 2 Weeks)): 92.3%
- Relative conc. (%) vs initial ([3]; Refrigerated (4 °C, 24 h)): 105%
- Relative conc. (%) vs initial ([3]; Refrigerated (−20 °C, 2 Weeks)): 91.4%
- Relative conc. (%) vs initial ([3]; Refrigerated (−80 °C, 2 Weeks)): 86.2%
- Relative conc. (%) vs initial ([3]; Room Temp. (6 h)): 101%
- CL [7]: 72.7 mL/min/kg
- Vss [7]: 30.5 L/kg
